Several values for one entry are separate records, joined by “and”; a condition that tells them apart may be missing. Equal entries are not always repeated.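 Assay format: 96-well plates, 48-hour exposure. GI50: concentration for 50% inhibition of growth. TGI denotes the concentration required for complete inhibition of growth.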

This is an account of results in PubChem BioAssay (NCI).

Among the test systems are ACHN renal; RPMI-8226 leukemia; NCI-H460 lung; OVCAR-4 ovarian; SNB-75 CNS; UO-31 renal; SF-295 CNS; OVCAR-5 ovarian; HCC-2998 colon; MALME-3M melanoma.
Common to all, as to assay: NCI tumour cell line growth inhibition, 48 h

On to `COc1cnc2c(c1)C(=O)c1c-2n(CCCN2CCCC2)c(=O)c2cc([N+](=O)[O-])ccc12`, for which the GI50 with ACHN renal was under 0.01 µM; in the experiment with RPMI-8226 leukemia, 0.0374 µM; with NCI-H460 lung, under 0.01 µM; in the experiment on OVCAR-4 ovarian, 0.0848 µM; in the experiment with SNB-75 CNS, 0.0457 µM; in the experiment on UO-31 renal it was under 0.01 µM. Also, the GI50 is under 0.01 µM in the experiment on SF-295 CNS, 0.163 µM in the experiment with OVCAR-5 ovarian, 0.157 µM in the experiment with HCC-2998 colon and 0.0558 µM with MALME-3M melanoma. Further, the TGI in the experiment on ACHN renal was determined as 0.132 µM; in the experiment on RPMI-8226 leukemia it was 1.11 µM; in the experiment on NCI-H460 lung, 0.116 µM; with OVCAR-4 ovarian, 10.5 µM; with SNB-75 CNS, 14.3 µM; with UO-31 renal, 0.206 µM. The TGI is 0.215 µM in the experiment with SF-295 CNS, 1.52 µM with OVCAR-5 ovarian, 2.53 µM with HCC-2998 colon and 1.15 µM in the experiment on MALME-3M melanoma.

`CC1=C([Te]c2ccccc2)C(=O)c2ccccc2C1=O`: the GI50 in the experiment on ACHN renal was 0.454 µM; in the experiment on RPMI-8226 leukemia it was 0.275 µM; in the experiment with NCI-H460 lung it was 0.177 µM; with OVCAR-4 ovarian it was 1.63 µM; in the experiment with SNB-75 CNS it was 0.207 µM; with UO-31 renal, 0.246 µM. The GI50 in the experiment with SF-295 CNS is 0.24 µM; in the experiment on OVCAR-5 ovarian, 0.283 µM; in the experiment with HCC-2998 colon it was 0.483 µM; in the experiment with MALME-3M melanoma, 1.79 µM. The TGI in the experiment on ACHN renal is 1.61 µM; with RPMI-8226 leukemia, 1.31 µM; in the experiment with NCI-H460 lung it was 0.391 µM; in the experiment on OVCAR-4 ovarian, 3.53 µM; with SNB-75 CNS, 0.898 µM; with UO-31 renal, 1.12 µM. The TGI in the experiment on SF-295 CNS worked out at 0.697 µM; in the experiment with OVCAR-5 ovarian, 0.86 µM; with HCC-2998 colon it was 1.55 µM; in the experiment on MALME-3M melanoma, 3.56 µM.

For `Fc1cccc(COc2ccc(Nc3ncnc4onc(-c5ccccc5)c34)cc2)c1`, the GI50 in the experiment on ACHN renal was 3.38 µM; in the experiment on RPMI-8226 leukemia, 0.0497 µM; in the experiment on NCI-H460 lung, 0.0661 µM; with OVCAR-4 ovarian it was 0.988 µM; with SNB-75 CNS, under 0.0162 µM; in the experiment with UO-31 renal, 3 µM. Besides, the GI50 was 0.405 µM in the experiment with SF-295 CNS, 0.34 µM in the experiment on OVCAR-5 ovarian, 0.287 µM with HCC-2998 colon and 0.206 µM in the experiment with MALME-3M melanoma. The TGI is over 100 µM in the experiment on ACHN renal; over 42 µM in the experiment with RPMI-8226 leukemia; over 53.3 µM in the experiment with NCI-H460 lung; over 100 µM in the experiment with OVCAR-4 ovarian; 0.155 µM in the experiment on SNB-75 CNS; 26.8 µM in the experiment with UO-31 renal. In addition, the TGI in the experiment with SF-295 CNS is over 26.7 µM; with OVCAR-5 ovarian it was 29.3 µM; in the experiment on HCC-2998 colon, 16.8 µM; in the experiment with MALME-3M melanoma, over 100 µM.

For `CC(C)(C)OC(=O)C1C(=O)NC(=O)CC1CC(OCc1ccccc1)C(OCc1ccccc1)C(COCc1ccccc1)OCc1ccccc1` (stereo not given), the GI50 is 60.2 µM and 18.8 µM in the experiment with ACHN renal; 21.5 µM and 7.16 µM with RPMI-8226 leukemia; 32.7 µM and 12.1 µM in the experiment with NCI-H460 lung; 11.1 µM and 4.48 µM in the experiment with UO-31 renal; 25.4 µM and 11.4 µM with MALME-3M melanoma. Further, the TGI in the experiment with ACHN renal is over 100 µM; in the experiment on RPMI-8226 leukemia, > 100 µM and 34.1 µM; in the experiment with NCI-H460 lung it was over 100 µM; in the experiment on OVCAR-4 ovarian, over 100 µM; in the experiment with SNB-75 CNS, over 100 µM; in the experiment on UO-31 renal, 24.8 µM and 16.2 µM. The TGI is over 100 µM in the experiment on SF-295 CNS; over 100 µM with OVCAR-5 ovarian; over 100 µM in the experiment with HCC-2998 colon; > 100 µM and 45.4 µM with MALME-3M melanoma.

As for `COc1cc(CCC[P+](c2ccccc2)(c2ccccc2)c2ccccc2)c(OC)c2c1OCO2`, the GI50 is 4.07 µM in the experiment on ACHN renal; 0.283 µM with RPMI-8226 leukemia; 1.81 µM with NCI-H460 lung; 1.08 µM with OVCAR-4 ovarian; 1.2 µM in the experiment on SNB-75 CNS; 10.8 µM with UO-31 renal. Further, the GI50 is 2.37 µM in the experiment with SF-295 CNS, 2.38 µM in the experiment with OVCAR-5 ovarian, 2.21 µM in the experiment with HCC-2998 colon and 0.602 µM in the experiment on MALME-3M melanoma. Moreover, the TGI in the experiment on ACHN renal stood at 21 µM; with RPMI-8226 leukemia, 1.87 µM; with NCI-H460 lung it was 5.58 µM; with OVCAR-4 ovarian, 16.1 µM; with SNB-75 CNS, 4.59 µM; in the experiment with UO-31 renal it was 44.1 µM. In addition, the TGI in the experiment on SF-295 CNS stood at 7.39 µM; in the experiment on OVCAR-5 ovarian, 37 µM; in the experiment with HCC-2998 colon, 13.3 µM; with MALME-3M melanoma, 6.92 µM.

Consider `COc1ccc(C(=O)C2CCC(C(=O)O)C2)cc1` (stereo not given), for which the TGI with ACHN renal, with RPMI-8226 leukemia, in the experiment with NCI-H460 lung, in the experiment on OVCAR-4 ovarian, with SNB-75 CNS and in the experiment on UO-31 renal was over 100 µM in each case. For the same compound, the TGI in the experiment on SF-295 CNS, in the experiment on OVCAR-5 ovarian, in the experiment with HCC-2998 colon and in the experiment on MALME-3M melanoma was over 100 µM throughout.

Turning to `O=S(=O)(N=C1C(Cl)=C(Cl)C(=NS(=O)(=O)c2ccccc2)C(Cl)=C1Cl)c1ccccc1`, the GI50 with ACHN renal is 20.5 µM; in the experiment with RPMI-8226 leukemia, 23.9 µM; with NCI-H460 lung, 17.4 µM; in the experiment with OVCAR-4 ovarian, 22.1 µM; with SNB-75 CNS, 23.5 µM; in the experiment with UO-31 renal, 18.8 µM. Further, the GI50 is 29.5 µM in the experiment with SF-295 CNS, 45.2 µM in the experiment on OVCAR-5 ovarian, 26.6 µM in the experiment on HCC-2998 colon and 18.5 µM with MALME-3M melanoma. Moreover, the TGI is 65 µM in the experiment with ACHN renal; over 100 µM with RPMI-8226 leukemia; 36.7 µM in the experiment on NCI-H460 lung; over 100 µM in the experiment on OVCAR-4 ovarian; over 100 µM in the experiment on SNB-75 CNS; 48.9 µM in the experiment with UO-31 renal. Also, the TGI is 93.8 µM in the experiment with SF-295 CNS, over 100 µM in the experiment with OVCAR-5 ovarian, 64.6 µM in the experiment with HCC-2998 colon and 56.4 µM in the experiment with MALME-3M melanoma.

Consider `COC[C@H](NC(=O)c1cnc(C)s1)C(=O)N[C@@H](COC)C(=O)N[C@@H](Cc1ccccc1)C(=O)[C@@]1(C)CO1`, for which the GI50 with ACHN renal is 34.8 µM; in the experiment on RPMI-8226 leukemia, 18.5 µM; with NCI-H460 lung, 37.1 µM; with OVCAR-4 ovarian it was 44.4 µM; in the experiment with SNB-75 CNS, 22.3 µM; in the experiment on UO-31 renal it was 30.9 µM. The GI50 was 20.1 µM with SF-295 CNS, 33.3 µM in the experiment with OVCAR-5 ovarian, 18.2 µM in the experiment with HCC-2998 colon and 22 µM in the experiment on MALME-3M melanoma. Besides, the TGI in the experiment on ACHN renal, in the experiment on RPMI-8226 leukemia, in the experiment with NCI-H460 lung, in the experiment with OVCAR-4 ovarian, with SNB-75 CNS and in the experiment with UO-31 renal was over 100 µM in each case. The TGI in the experiment on SF-295 CNS was 72.7 µM; in the experiment with OVCAR-5 ovarian it was over 94 µM; in the experiment with HCC-2998 colon, 37.6 µM; in the experiment with MALME-3M melanoma, 64 µM.
